Reference: patent US20060057665A1, “Galectin-14 therapeutic molecule and uses thereof” (The University of Melbourne, priority 2001, published 2006)

Key:
[1] = tested on: GST-galectin-14; assay: Saccharide inhibition of GST-galectin-14 induced hemagglutination; format: cell-based, rabbit; settings: 0.28 μM GST-galectin-14; sugars 0.78-100 mM
Description: FIG. 14 is an image of a hemagglutination assay using GST-galectin-14 fusion protein. Agglutination of rabbit erythrocytes was assayed in a 96-well microtiter plate. Assays were conducted in the presence (2, 3, 4, and 5) or absence (1 and 6) of 0.28 μM recombinant GST-galectin-14, the minimum concentration to induce agglutination. Increasing concentrations (0.78-100 mM) of lactose (2), galactose (3), or N-acetyl-glucosamine (4) were added to inhibit agglutination. In the presence of GST-galectin-14 without sugar (5) the rabbit erythrocytes form a “mat” at the bottom of the wells. The assay buffer DES alone (1) and 3 μM rGST (6) were included as negative controls. Trypsin-treated, glutaraldehyde fixed rabbit erythrocytes were prepared and tested in an agglutination assay according to the method of Nowak et al. (Nowak et al. (1976) supra). Agglutination assays were performed in 96-well V-shaped microtiter plates with serial 2-fold dilutions of samples in 25 μl of DES (0.15 M NaCl, 2 mM EDTA, 2 mM dithiothreitol), 50 μl of 0.5% (w/v) BSA in 0.15 M NaCl and 25 μl of a 4% suspension of rabbit erythrocytes. The plates were shaken vigorously for 30 s, and agglutination was read after the plates had stood at room temperature for 1 h. Agglutinated erythrocytes formed a “mat” on the bottom of the well. For assessment of the inhibitory effects of saccharides, lactose, galactose, and N-acetyl-glucosamine were serially diluted in 25 μl of 0.15 M NaCl prior to the addition of recombinant protein in DES, 25 μl of 1% (w/v) BSA in 0.15 M NaCl, and 4% erythrocytes in PBS. The minimum concentration of GST-galectin-14 that gave mat formation (0.28 μM) was used in the saccharide inhibition assay. For assessment of the effects of antibody on GST-galectin-14 hemagglutination, ascites and supernatants from monoclonal antibodies and polyclonal rabbit sera all raised to recombinant galectin-14 were serially diluted in 25 μl of 0.15 M NaCl prior to the addition of recombinant protein in DES, 25 μl of 1% (w/v) BSA in 0.15 M NaCl, and 4% erythrocytes in PBS. […]

[2] = tested on: GST-galectin-14 binding to laminin; assay: Lactose inhibition of GST-galectin-14 binding to immobilised laminin; settings: 0.3 M lactose added
Description: FIG. 17 is an image of the saturation binding of GST-galectin-14 fusion protein to immobilised laminin. Laminin binding of GST-galectin-14 fusion protein was assayed using a solid-phase binding assay in a 96-well microtitre plate. Serial dilutions of GST-galectin-14 (▪) and GST (▴) were added to microtitre wells containing laminin. 0.3 M Lactose was added to GST-galectin-14 to inhibit binding (◯). The level of bound protein was monitored by the binding of rabbit anti-GST HRP antibody developed with TMB substrate and detected by a change in absorbance at 450 nm. Laminin binding activity was measured according to the method of Mazurek et al. with some modification. Briefly, the wells of a 96-well microtitre plate were coated with laminin from Engelbreth-Holm-Swarm murine sarcoma (Sigma) at 1 μg/100 μl of carbonate coating buffer (15 mM Na2CO3, 35 mM NaHCO3, pH 9.6) per well overnight at 4° C. Non-specific binding sites were blocked with 200 μl of 0.5% Tween 20 in PBS for 1 h. Plates were washed 3 times in 0.05% Tween 20 PBS and incubated with 50 μl serial dilutions of GST-galectin-14 or GST alone, diluted in 0.5% Tween 20 PBS, for 1.5 h at 37° C. Control wells contained 0.3 M lactose. […] The reaction was terminated with 100 μl 2 M sulphuric acid and the colour change monitored using a dual wavelength mode plate reader (Bio-tek instruments) at 450 nm, ref 690 nm.

[3] = tested on: rabbit erythrocytes; assay: Hemagglutination assay on trypsin-treated, glutaraldehyde fixed rabbit erythrocytes; format: cell-based; settings: negative control protein, 3 μM rGST
Description: Trypsin-treated, glutaraldehyde fixed rabbit erythrocytes were prepared and tested in an agglutination assay according to the method of Nowak et al. (Nowak et al. (1976) supra). Agglutination assays were performed in 96-well V-shaped microtiter plates with serial 2-fold dilutions of samples in 25 μl of DES (0.15 M NaCl, 2 mM EDTA, 2 mM dithiothreitol), 50 μl of 0.5% (w/v) BSA in 0.15 M NaCl and 25 μl of a 4% suspension of rabbit erythrocytes. The plates were shaken vigorously for 30 s, and agglutination was read after the plates had stood at room temperature for 1 h. Agglutinated erythrocytes formed a “mat” on the bottom of the well. For assessment of the inhibitory effects of saccharides, lactose, galactose, and N-acetyl-glucosamine were serially diluted in 25 μl of 0.15 M NaCl prior to the addition of recombinant protein in DES, 25 μl of 1% (w/v) BSA in 0.15 M NaCl, and 4% erythrocytes in PBS. The minimum concentration of GST-galectin-14 that gave mat formation (0.28 μM) was used in the saccharide inhibition assay. For assessment of the effects of antibody on GST-galectin-14 hemagglutination, ascites and supernatants from monoclonal antibodies and polyclonal rabbit sera all raised to recombinant galectin-14 were serially diluted in 25 μl of 0.15 M NaCl prior to the addition of recombinant protein in DES, 25 μl of 1% (w/v) BSA in 0.15 M NaCl, and 4% erythrocytes in PBS. […]

Row | Compound | lowest sugar concentration at which inhibition of agglutination becomes evident [1] [mM] | effect on binding of GST-galectin-14 to laminin [2] | induction of hemagglutination [3]
1 | CC(=O)N[C@H]1C(O)O[C@H](CO)[C@@H](O)[C@@H]1O (some centres unmarked) [N-acetyl-glucosamine] | 50 |  | 
2 | O=C[C@H](O)[C@@H](O)[C@@H](O)[C@H](O)CO [galactose] | 12.5 |  | 
3 | OC[C@H]1O[C@@H](O[C@H]2[C@H](O)[C@@H](O)C(O)O[C@@H]2CO)[C@H](O)[C@@H](O)[C@H]1O (some centres unmarked) [lactose] | 0.78 | reduced to the level of the control | 
4 | GST: GST moiety alone, used as negative control protein [reference compound] |  |  | does not
